Results from the supplement of paper PMC10627819.

Experiments:
[1] = tested on: S. aureus DSM 20231; assay: fitness (endpoint OD595 vs no drug) (fraction); higher = more growth
Summary of the method: (§1)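 Cultures at OD595 0.01 were dispensed into 384-well plates in TSB, LB Lennox or CY and incubated at 37 °C. Every 30 min for 14 h, OD595 was read and corrected by the first reading. Fitness is the optical density at entry into stationary phase relative to the robust mean of no-drug control wells, capped at 1.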

[2] = tested on: B. subtilis 168; assay: as above
Summary of the method: as §1

[3] = tested on: S. pneumoniae D39V; assay: Bliss interaction score (quartile over a dose matrix) (fitness difference); higher = more antagonism (negative = synergy)
Summary of the method: (§2)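 The Bliss score was calculated by subtracting the expected fitness, the product of single-drug values, from the observed fitness. OD595 at entry into stationary phase, over the plate's robust no-drug mean and capped at 1, served as the fitness readout. Single-drug values were inferred from combination data, and scores are summarised by quartiles across technical, biological and donor/recipient replicates.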

[4] = tested on: S. aureus Newman; assay: as above
Summary of the method: as §2

[5] = tested on: S. aureus DSM 20231; assay: as above
Summary of the method: as §2

[6] = tested on: B. subtilis 168; assay: as above
Summary of the method: as §2

[7] = tested on: S. pneumoniae D39V; assay: fitness (endpoint OD595 vs no drug) (fraction); higher = more growth
Summary of the method: as §1

[8] = tested on: S. aureus Newman; assay: as above
Summary of the method: as §1
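Wherever Bliss interaction score (quartile over a dose matrix) is given: first quartile when negative (synergy) and third quartile when positive (antagonism).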

CCC[C@@H]1C[C@@H](C(=O)N[C@@H]([C@H]2O[C@H](SC)[C@H](O)[C@@H](O)[C@H]2O)[C@@H](C)O)N(C)C1 [Lincomycin] + COc1cc(Cc2cnc(N)nc2N)cc(OC)c1OC [Trimethoprim]
fitness
Conditions	first compound 0.1 µg/mL	first compound 0.2 µg/mL	first compound 0.4 µg/mL	first compound 0.8 µg/mL	first compound 1.6 µg/mL
[1], partner 0.125 µg/mL	0.83	0.556	0.227	–	–
[1], partner 0.25 µg/mL	0.69	0.596	–	–	–
[1], partner 0.5 µg/mL	0.49	0.536	0.173	–	–
[1], partner 1 µg/mL	0.0776	0.0724	0.0567	–	–
[2], partner 0.125 µg/mL	–	–	0.487	–	–
[2], partner 0.25 µg/mL	–	–	0.465	0.263	0.0775
[2], partner 0.5 µg/mL	0.412	0.368	0.282	0.155	0.0565

fitness, [2], one replicate
Conditions	partner 0.1 µg/mL	partner 0.125 µg/mL	partner 0.2 µg/mL	partner 0.25 µg/mL	partner 0.4 µg/mL	partner 1 µg/mL	partner 2 µg/mL
first compound 0.1 µg/mL	–	0.539	–	0.582	–	0.451	0.343
first compound 0.2 µg/mL	–	0.633	–	0.619	–	0.319	0.174
first compound 0.4 µg/mL	0.581	–	0.318	–	0.215	0.069	0.0635
first compound 0.8 µg/mL	0.382	0.142	0.169	–	0.121	–	–
first compound 1.6 µg/mL	0.112	0.0455	0.0673	–	0.0597	–	–

Conditions	Bliss interaction score
[3]	-0.125
[4]	0.213
[5]	0.222
[6]	-0.231

CCCCCCCCCC(=O)N[C@H]1[C@H](Oc2c3cc4cc2Oc2ccc(cc2Cl)[C@@H](O[C@@H]2O[C@H](CO)[C@@H](O)[C@H](O)[C@H]2NC(C)=O)[C@@H]2NC(=O)[C@H](NC(=O)[C@@H]4NC(=O)[C@H]4NC(=O)[C@@H](Cc5ccc(c(Cl)c5)O3)NC(=O)[C@H](N)c3ccc(O)c(c3)Oc3cc(O)cc4c3)c3ccc(O)c(c3)-c3c(O[C@H]4O[C@H](CO)[C@@H](O)[C@H](O)[C@@H]4O)cc(O)cc3[C@@H](C(=O)O)NC2=O)O[C@H](CO)[C@@H](O)[C@@H]1O [Teicoplanin] + COc1cc(Cc2cnc(N)nc2N)cc(OC)c1OC [Trimethoprim]
fitness, [1], main component drawn
Conditions	partner 0.125 µg/mL	partner 0.25 µg/mL	partner 0.5 µg/mL	partner 1 µg/mL
first compound 0.1562 µg/mL	0.733	0.591	0.0778	0.0229
first compound 0.3125 µg/mL	0.798	0.61	0.0585	0.0126
first compound 0.625 µg/mL	0.708	–	0.0794	0.0061

main component drawn
Conditions	Bliss interaction score
[3]	-0.0668
[4]	-0.249
[5]	-0.167
[6]	-0.0836

O=C(O[C@@H]1Cc2c(O)cc(O)cc2O[C@@H]1c1cc(O)c(O)c(O)c1)c1cc(O)c(O)c(O)c1 [EGCG] + CN(C)c1cc(NC(=O)CNC(C)(C)C)c(O)c2c1C[C@H]1C[C@H]3[C@H](N(C)C)C(O)=C(C(N)=O)C(=O)[C@@]3(O)C(O)=C1C2=O [Tigecycline]
fitness
Conditions	first compound 6.25 µg/mL	first compound 12.5 µg/mL	first compound 25 µg/mL	first compound 50 µg/mL
[2], partner 0.039 µg/mL	0.929	–	–	–
[2], partner 0.078 µg/mL	0.929	–	–	–
[2], partner 0.156 µg/mL	0.91	–	–	–
[7], partner 0.325 µg/mL	–	0.913	0.97	0.958
[7], partner 0.65 µg/mL	–	0.912	0.971	0.951
[7], partner 1.3 µg/mL	–	0.928	0.916	0.954
[7], partner 2.6 µg/mL	–	0.897	0.929	0.935
[8], partner 0.039 µg/mL	–	0.755	0.744	–
[8], partner 0.078 µg/mL	–	0.797	0.788	0.657
[8], partner 0.156 µg/mL	–	0.82	0.721	0.796

fitness, [2], one replicate
Conditions	first compound 6.25 µg/mL	first compound 12.5 µg/mL	first compound 25 µg/mL
partner 0.125 µg/mL	≥ 1	0.897	0.55
partner 0.25 µg/mL	0.944	0.72	0.428
partner 0.5 µg/mL	0.942	0.757	0.418

Conditions	Bliss interaction score
[3]	0.079
[4]	-0.067
[5]	-0.0488
[6]	0.0564
